Converted amounts (≈) assume the structure as drawn. Where a name gives a salt, the structure may show the parent alone. One block for each compound: values may come before it.
What was measured:
[1] = molecular target: T1, fibrinogen receptor (GpIIb/IIIa) on blood platelet (Homo sapiens, UniProt P05106+P08514); assay: Human Blood Platelet Fibrinogen Binding Test (125I labeled human fibrinogen, ADP 10 μM); conditions: human platelet 125I-fibrinogen binding
T1 construct: fibrinogen-free blood platelet suspension; endogenous in cells; host or cells: human blood platelets (from citrated venous blood of a healthy donor, gel-filtered)
T1 sequence (P08514 32-887 limits assumed): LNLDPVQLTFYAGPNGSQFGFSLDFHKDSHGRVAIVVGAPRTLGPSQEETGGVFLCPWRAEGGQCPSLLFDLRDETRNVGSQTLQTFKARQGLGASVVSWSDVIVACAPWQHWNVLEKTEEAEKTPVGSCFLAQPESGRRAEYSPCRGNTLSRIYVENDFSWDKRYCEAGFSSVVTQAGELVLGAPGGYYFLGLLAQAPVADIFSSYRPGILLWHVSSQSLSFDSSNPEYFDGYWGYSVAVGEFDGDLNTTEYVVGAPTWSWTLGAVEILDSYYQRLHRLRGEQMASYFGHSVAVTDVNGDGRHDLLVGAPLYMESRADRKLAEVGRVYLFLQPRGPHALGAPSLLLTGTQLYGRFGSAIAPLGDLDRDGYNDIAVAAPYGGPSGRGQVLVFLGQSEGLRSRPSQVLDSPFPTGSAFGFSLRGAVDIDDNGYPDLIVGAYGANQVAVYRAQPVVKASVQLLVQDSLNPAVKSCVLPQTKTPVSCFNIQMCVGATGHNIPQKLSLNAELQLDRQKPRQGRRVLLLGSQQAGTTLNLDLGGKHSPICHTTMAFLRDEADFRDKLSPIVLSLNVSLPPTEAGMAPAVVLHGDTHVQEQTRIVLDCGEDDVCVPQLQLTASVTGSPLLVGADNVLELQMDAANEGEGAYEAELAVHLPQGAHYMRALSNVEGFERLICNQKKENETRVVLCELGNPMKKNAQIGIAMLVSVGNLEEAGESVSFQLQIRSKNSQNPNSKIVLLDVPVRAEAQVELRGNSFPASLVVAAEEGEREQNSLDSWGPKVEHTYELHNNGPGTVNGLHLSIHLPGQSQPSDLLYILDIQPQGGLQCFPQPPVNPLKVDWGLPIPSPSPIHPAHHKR
T1 sequence (P08514 891-1039 partner limits assumed): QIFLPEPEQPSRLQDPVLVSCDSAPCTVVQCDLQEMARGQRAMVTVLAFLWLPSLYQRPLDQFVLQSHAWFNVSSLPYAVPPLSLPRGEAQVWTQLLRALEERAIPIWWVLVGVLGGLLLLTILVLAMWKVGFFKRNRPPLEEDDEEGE
T1 sequence (P05106 27-788): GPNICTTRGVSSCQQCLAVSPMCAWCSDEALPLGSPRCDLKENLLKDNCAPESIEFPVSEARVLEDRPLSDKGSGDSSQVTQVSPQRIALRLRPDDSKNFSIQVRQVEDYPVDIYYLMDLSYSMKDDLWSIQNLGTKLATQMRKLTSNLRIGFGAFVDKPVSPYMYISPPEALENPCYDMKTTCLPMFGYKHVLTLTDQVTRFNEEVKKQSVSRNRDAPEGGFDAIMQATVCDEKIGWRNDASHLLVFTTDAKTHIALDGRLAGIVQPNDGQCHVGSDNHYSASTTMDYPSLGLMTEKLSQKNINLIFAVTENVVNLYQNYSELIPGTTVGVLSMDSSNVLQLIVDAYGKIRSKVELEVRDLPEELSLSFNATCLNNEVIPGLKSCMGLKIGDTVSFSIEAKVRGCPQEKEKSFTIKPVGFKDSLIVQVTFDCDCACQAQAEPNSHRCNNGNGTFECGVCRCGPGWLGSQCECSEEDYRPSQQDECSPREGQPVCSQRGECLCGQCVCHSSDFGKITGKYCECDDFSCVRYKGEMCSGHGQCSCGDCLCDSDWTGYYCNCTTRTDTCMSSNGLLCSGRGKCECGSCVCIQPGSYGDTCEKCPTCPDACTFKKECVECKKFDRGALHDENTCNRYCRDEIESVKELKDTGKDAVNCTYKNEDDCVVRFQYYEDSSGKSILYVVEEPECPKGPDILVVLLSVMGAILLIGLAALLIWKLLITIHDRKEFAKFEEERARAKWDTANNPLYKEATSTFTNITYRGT
Experimental: Experiment 1 [Human Blood Platelet Fibrinogen Binding Test]
The test was carried out referring to the methods of G. A. Marguerie (J. Biol. Chem., vol. 254, pages. 5357-5363, 1979) and N. S. Nicholson (Thromb. Res., vol. 50, pages 567-578, 1991).
(§1) Citrated blood (the volume ratio of 3.13% sodium citrate solution and blood is 1:9) was collected from the cubital vein of a healthy human who had not received any drugs known to affect the function of blood platelet within 2 weeks prior to starting the test, and centrifuged at 120× g at room temperature for 15 minutes to give platelet rich plasma (PRP) as a supernatant.
To the above PRP was added one fifth volume of an ACD solution (citric acid/sodium citrate/dextrose), followed by centrifugation at 1200× g for 15 minutes. The precipitate was suspended in a Tyrode's solution ([…], 2 mM Mg^2+), followed by gel filtration using Sepharose 2B column to give a fibrinogen-free blood platelet suspension (1×10^9 /ml). The binding test was carried out by using the fibrinogen-free blood platelet suspension, the solutions of the compounds of Formula (I) in dimethyl sulfoxide which were each adjusted to the desired concentration by diluting with a physiological saline solution as test drugs, ADP (final concentration: 10 μM) and ^125 I labeled human fibrinogen, and then the binding inhibitory rate of the test drug was calculated.
N-(2-Carboxyethyl)-2-(4-amidinobenzoylimino)-3,4-dimethyl-3H-thiazoline-5-carboxamide hydrobromide (described in WO 94/02472; referred to as "Comparative drug" in the following experiments) was used as a comparative drug. The drug solution was prepared in the same manner as described above, and tested as described above.
The results are shown in Table 1 in which the compound numbers are the same as defined in the following examples and are also used in the following experiments.

[2] = Solubility Test (0.1M phosphate buffer, pH 7); type: physicochemical; conditions: aqueous buffer, 0.1M phosphate buffer pH 7, 25° C.
Experimental: Experiment 3 [Solubility Test]
Solubility test was carried out referring to the method of S. Miyazaki et al. [Chem. Pharm. Bull., vol. 23, page 1197 (1975)].
9.511 g of disodium hydrogenphosphate weighed accurately was dissolved in 800 ml of water. The solution was adjusted to pH 7.0 by adding sodium dihydrogenphosphate, and the total volume of the solution was made exactly 1000 ml to give a 0.1M phosphate buffer (pH 7). To 1.0 ml of the buffer solution measured exactly was added an excess amount for the solubility limit of the test drug. The suspension was treated by supersonic waves for 5 minutes and stirred on a water bath at 25° C. for 24 hours. After removal of the insoluble substance by using a membrane filter (0.22 μm), the filtrate was appropriately diluted to give a test solution. Separately, 1 mg of the test drug weighed accurately was dissolved in the eluate to make exactly 100 ml to give a standard solution. The test solution and the standard solution were quantified by high performance liquid chromatography method under the following procedure conditions, and the solubility of the test drug was calculated.
Detection instrument: Ultraviolet spectrophotometer (Detection wave length: 246 nm)
(§2) Column: ODS column 4.6.phi.×150 mm (TSK Gel ODS 80TM)
Column temperature: A definite temperature in the vicinity of 50° C. […]

[3] = Stability Test (pH 7 phosphate buffer, 80° C.); type: physicochemical; conditions: 20 mg in 1000 ml; for remaining at 4 h: After 4 hours; for remaining at 4 h / remaining at 8 h / remaining at 24 h: read-out: Remaining rate of Test drug; for remaining at 8 h: After 8 hours; for remaining at 24 h: After 24 hours; for Remaining rate of Test drug: Immediately after
Experimental: Experiment 4 [Stability Test]
Stability test was carried out referring to the method of A. K. Amirjahed et al [J. Pharm. Sci., vol. 66, page 785 (1977)].
20 mg of Compound 8 obtained in the following example and 20 mg of Comparative drug, each weighed accurately, were each dissolved in 0.1N phosphate buffer (a buffer of a suitable amount of 0.1M potassium dihydrogenphosphate mixed with a suitable amount of 0.1M disodium hydrogenphosphate to adjust to pH 7) to make exactly 1000 ml to give standard solutions, respectively. The solution was dispensed into ampules, and they were stored at 80° C. for 4 hours, 8 hours and 24 hours to prepare test solutions.
20 μl of the test solution and 20 μl of the standard solution were each quantified by high performance liquid chromatography method under the following procedure conditions, and the peak areas of Compound 8 and Comparative drug at the storage times were determined, and the remaining rate was calculated by using the following formula, and the results are shown in Table 4.
Detection instrument: Ultraviolet spectrophotometer (Detection wave length: 247 nm)
as §2
Column temperature: A definite temperature in the vicinity of 50° C.
[Compound 8] 1 ml of phosphoric acid and 5 g of sodium dodecylsulfate (SDS) are added to 1000 ml of a mixture of water and acetonitrile (65:35).
[Comparative drug] 1 ml of phosphoric acid and 3 g of sodium dodecylsulfate (SDS) are added to 1000 ml of a mixture of water and acetonitrile (60:40).
Formula: Remaining rate (%)= [formula]

[4] = tested on: blood platelet aggregation; assay: Human in vitro Blood Platelet Aggregation Inhibition Test (ADP-induced, PRP); type: cell-based; conditions: ADP 7 μM, 37° C., 50% inhibition of maximum aggregation
Experimental: Experiment 2 [Human in vitro Blood Platelet Aggregation Inhibition Test]
as §1, with “supernatant. The remaining precipitate was further centrifuged at 1500× g for 10 minutes to give platelet poor plasma (PPP) as a supernatant. The blood platelet counts of PRP were adjusted to 50~60×10^4 /μl by diluting with PPP.” for “supernatant.”
Blood platelet aggregation was monitored according to the method of Born G. V. R., [Nature, vol. 194, page 927 (1962)] using adenosine diphosphate (produced by Sigma Co.; hereinafter referred to as "ADP") as an aggregation-inducing substance. That is, a solution of the compound of Formula (I) as a test drug in dimethyl sulfoxide was adjusted to the desired concentration with a physiological saline solution. 25 μl of the solution was added to 250 μl of PRP and incubated at 37° C. for 3 minutes, and 25 μl of ADP (final concentration: 7 μM) was added thereto. […]

Compound: Cc1c(C(=O)NCCC(=O)O)sc(=NC(=O)c2ccc(C(=N)NCCCC(=O)NC3CCCCC3)cc2)n1C [Compound 12, N-(2-carboxyethyl)-2-{4-[N-(3-cyclohexylaminocarbonylpropyl)amidino]benzoylimino}-3,4-dimethyl-3H-thiazoline-5-carboxamide]
IC50 [1]: 4.7 nM

Compound: Cc1c(C(=O)NCCC(=O)O)sc(=NC(=O)c2ccc(C(=N)NCCC(=O)O)cc2)n1C [Compound 9, N-(2-carboxyethyl)-2-{4-[N-(2-carboxyethyl)amidino]-benzoylimino}-3,4-dimethyl-3H-thiazoline-5-carboxamide]
IC50 [1]: 16.5 nM

Compound: Cc1c(C(=O)NCCC(=O)O)sc(=NC(=O)c2ccc(C(=N)NCCCC(=O)O)cc2)n1C [Compound 8, N-(2-carboxyethyl)-2-{4-[N-(3-carboxypropyl)amidino]benzoylimino}-3,4-dimethyl-3H-thiazoline-5-carboxamide]
solubility at 24 h [2]: 20 mg/mL (≈ 42.1 mM) | remaining at 4 h [3]: 97.8% | remaining at 8 h [3]: 95.7% | remaining at 24 h [3]: 88.9% | Remaining rate of Test drug [3]: 100% | IC50 [4]: 39 nM | IC50 [1]: 25.6 nM

Compound: Cc1c(C(=O)NCCC(=O)O)sc(=NC(=O)c2ccc(C(=N)NCCCC(=O)OC3CCCCC3)cc2)n1C [Compound 11, N-(2-carboxyethyl)-2-{4-[N-(3-cyclohexyloxycarbonylpropyl)amidino]benzoylimino}-3,4-dimethyl-3H-thiazoline-5-carboxamide]
IC50 [1]: 8.2 nM

Compound: Cc1c(C(=O)NCCC(=O)O)sc(=NC(=O)c2ccc(C(=N)N)cc2)n1C [Comparative drug, N-(2-Carboxyethyl)-2-(4-amidinobenzoylimino)-3,4-dimethyl-3H-thiazoline-5-carboxamide hydrobromide, reference compound]
solubility at 24 h [2]: 0.03 mg/mL | remaining at 4 h [3]: 82.2% | remaining at 8 h [3]: 68.4% | remaining at 24 h [3]: 32.3% | Remaining rate of Test drug [3]: 100% | IC50 [4]: 17 nM | IC50 [1]: 5 nM

Results, then the compound that gave them:

IC50 [1]: 12.6 nM
Compound: Cc1c(C(=O)NCCC(=O)O)sc(=NC(=O)c2ccc(C(=N)NCCCC(=O)OC3CCCCC3)cc2)n1C(C)C [Compound 17, N-(2-carboxyethyl)-2-{4-[N-(3-cyclohexyloxycarbonylpropyl)amidino]benzoylimino}-3-isopropyl-4-methyl-3H-thiazoline-5-carboxamide]

IC50 [1]: 11.1 nM
Compound: Cc1c(C(=O)NCCC(=O)O)sc(=NC(=O)c2ccc(C(=N)NCCCC(=O)OC3CCCCC3)cc2)n1C1CCC1 [Compound 56, N-(2-carboxyethyl)-2-{4-[N-(3-cyclohexyloxycarbonylpropyl)amidino]benzoylimino}-3-cyclobutyl-4-methyl-3H-thiazoline-5-carboxamide]

IC50 [1]: 7.2 nM
Compound: Cc1c(C(=O)NCCC(=O)O)sc(=NC(=O)c2ccc(C(=N)NCCCC(=O)OC3CCCCC3)cc2)n1C1CC1 [Compound 49, N-(2-carboxyethyl)-2-{4-[N-(3-cyclohexyloxycarbonylpropyl)amidino]benzoylimino}-3-cyclopropyl-4-methyl-3H-thiazoline-5-carboxamide]

IC50 [1]: 8.6 nM
Compound: Cc1c(C(=O)NCCC(=O)O)sc(=NC(=O)c2ccc(C(=N)NCCCCCC(=O)Nc3ccccc3)cc2)n1C1CC1 [Compound 51, N-(2-carboxyethyl)-2-{4-[N-(5-phenylaminocarbonylpentyl)amidino]benzoylimino}-3-cyclopropyl-4-methyl-3H-thiazoline-5-carboxamide]

Reference: US5672712A, “Thiazoline derivatives” (Taisho Pharmaceutical Co., Ltd., priority 1994, dated 1997)
